# According to patent publication US12605323B2, “Composition for inhibiting hair graying, and use thereof” (LG HOUSEHOLD & HEALTH CARE LTD., priority 2020, dated 2026):
# Where no end group is shown, it is not given here.
# How the values were obtained:
# [1] = system: Wnt/β-catenin signaling pathway (TCF/LEF Responsive Luciferase Reporter HEK293A cell line); test: Effect of enhancing Wnt/β-catenin signaling, TCF/LEF responsive luciferase reporter assay; type: cell-based; conditions: 10 μg/mL, 24 hours, WRHEK293A cells, non-treated control = 100%
# Experimental: To determine activation of the Wnt/β-catenin signaling pathway, TCF/LEF Responsive Luciferase Reporter HEK293A stabilized cell line (Wnt Reporter HEK293A cell; WRHEK293A) was used in this test. The stabilized cell line was maintained through the subculture using MEM (Corning, USA) and fetal bovine serum (Gibco BRL, Gaithersburg, MD, USA). To carry out a transcriptional activity test, 30,000 cells were seeded per well in a 96-well plate and cultured in an incubator at 37° C. for 24 hours. Then, according to the present disclosure, treatment with each of escin, 27-deoxyactein, lysionotin, nitidine chloride, lanosterol, engeletin, specnuezhenide, praeruptorin B, rotundic acid, sesamoside, polygalacin D, momordin Ic, valechlorine, tussilagone, periplocin, polyphyllin VII and platycodin D2 was carried out as shown in the following Table 1. After culturing for 24 hours, a luciferase assay system (Promega) was used to perform reporter analysis. The analysis was carried out by the test method provided by the production company, and luminescence was determined by using Victor multiwall plate reader (PerkinElmer, USA). To determine cytotoxicity caused by the treatment, development of fluorescence of GFP as an internal control was determined. The luminescence value derived from the reaction with luciferase was divided by the GFP fluorescence value, and the values of the test group were calculated by taking the value of the non-treated control as 100% and expressed in the unit of percentage (%) (Table 1).
# [2] = system: B-16 mouse melanoma cells; test: Determination of effect of producing melanin; type: cell-based; conditions: B-16 melanoma cells; for Melanin synthesis (%): non-treated control = 100%
# Experimental: In this test, the compounds in Test Example 1 showing an effect of enhancing the Wnt signaling were added to the culture medium of mouse-derived melanoma cells (B-16 mouse melanoma cells) to determine the effect of producing melanin in a cellular level (Lotan R., Lotan D. Cancer Res. 40: 3345-3350, 1980). Before the test, B-16 melanoma cells were evaluated in terms of toxicity, and the non-toxic concentration was selected to carry out evaluation of melanin production. B-16 melanoma cells were subcultured in DMEM (Gibco BRL., Gaithersburg, MD, USA) containing 10% FBS. Then, seeding to a 100 mm cell culture dish was performed to synthesize and extract melanin, and the cells were treated with each compound when the confluency was 70%. The compound was used for treating the cell culture at a concentration of 10 μg/mL. In addition, α-melanocyte stimulating hormone (α-MSH) was used as control, added to the culture medium to 10 nM to treat B-16 melanoma cells, and cultured for 48 hours. Then, the cells were treated with trypsin to strip them off the culture container, and centrifugal separation was carried out to extract melanin. After that, 1 mL of sodium hydroxide (1 N concentration) solution was added to the stripped cells and the mixture was boiled for 10 minutes so that melanin may be dissolved. The amount of melanin production was determined by measuring the absorbance at 400 nm by using a spectrophotometer. The amount of melanin was quantified in the unit of μg/mL by using a standard absorbance curve as a function of melanin concentration. The value of the non-treated control was taken as 100%, and the values of the test group were calculated as a percentage (%) on the basis thereof (Table 2).
Compound,Wnt signaling activation capability (%) (Luminescence/GFP) [1],Melanin synthesis (%) ([2]; 10 μg/mL),melanin synthesis (FIG. 1) [2],"Melanin synthesis (%) ([2]; 10 nM, 48 hours)"
"CC=C1[C@H](O[C@@H]2O[C@H](CO)[C@@H](O)[C@H](O)[C@H]2O)OC=C(C(=O)OC)[C@H]1CC(=O)OC[C@H]1O[C@@H](OCCc2ccc(O)cc2)[C@H](O)[C@@H](O)[C@@H]1O (stereo in doubt) [Specnuezhenide, specnuezhenide]",243,106,,
"CC(=O)O[C@@H]1C[C@@]23C[C@@]24CC[C@H](O[C@@H]2OC[C@@H](O)[C@H](O)[C@H]2O)C(C)(C)[C@@H]4CC[C@H]3[C@]2(C)C[C@@H]3O[C@]4(C[C@@H](C)[C@@H]3[C@@]12C)OC[C@@]1(C)O[C@@H]41 [27-Deoxyactein, 27-deoxyactein]",1717,168,,
"CC1OC(OC2C(=O)c3c(O)cc(O)cc3OC2c2ccc(O)cc2)C(O)C(O)C1O (stereo not drawn) [Engeletin, engeletin]",223,121,,
"CC(C)=CCC[C@@H](C)[C@H]1CC[C@@]2(C)C3=C(CC[C@]12C)[C@@]1(C)CC[C@H](O)C(C)(C)[C@@H]1CC3 [Lanosterol, lanosterol]",194,110,,
"COc1ccc(-c2cc(=O)c3c(O)c(OC)c(O)c(OC)c3o2)cc1 [Lysionotin, lysionotin]",196,135,,
"CC1(C)CC[C@]2(C(=O)O)CC[C@]3(C)C(=CC[C@@H]4[C@@]5(C)CC[C@H](O[C@@H]6O[C@H](C(=O)O)[C@@H](O)[C@H](O[C@@H]7OC[C@@H](O)[C@H](O)[C@H]7O)[C@H]6O)C(C)(C)[C@@H]5CC[C@]43C)[C@@H]2C1 [Momordin Ic, momordin Ic]",370,131,,
"COc1cc2c[n+](C)c3c4cc5c(cc4ccc3c2cc1OC)OCO5 [Nitidine chloride, nitidine chloride]",274,125,,
"CO[C@H]1C[C@H](O[C@H]2CC[C@]3(C)[C@H]4CC[C@]5(C)[C@@H](C6=CC(=O)OC6)CC[C@]5(O)[C@@H]4CC[C@]3(O)C2)O[C@H](C)[C@H]1O[C@@H]1O[C@H](CO)[C@@H](O)[C@H](O)[C@H]1O [Periplocin, periplocin]",244,128,,
"C[C@@H]1O[C@@H](O[C@H]2[C@H](OC(=O)[C@]34CCC(C)(C)C[C@H]3C3=CC[C@@H]5[C@@]6(C)C[C@H](O)[C@H](O[C@@H]7O[C@H](CO)[C@@H](O)[C@H](O[C@@H]8O[C@H](CO)[C@@H](O)[C@H](O)[C@H]8O)[C@H]7O)C(CO)(CO)[C@@H]6CC[C@@]5(C)[C@]3(C)C[C@H]4O)OC[C@H](O)[C@@H]2O)[C@H](O)[C@H](O)[C@H]1O[C@@H]1OC[C@@H](O)[C@H](O[C@@H]2OC[C@](O)(CO)[C@H]2O)[C@H]1O [Platycodin D2, platycodin D2]",216,119,,
"C[C@@H]1O[C@@H](O[C@H]2[C@H](OC(=O)[C@]34CCC(C)(C)C[C@H]3C3=CC[C@@H]5[C@@]6(C)C[C@H](O)[C@H](O[C@@H]7O[C@H](CO)[C@@H](O)[C@H](O)[C@H]7O)[C@@](C)(CO)[C@@H]6CC[C@@]5(C)[C@]3(C)C[C@H]4O)OC[C@H](O)[C@@H]2O)[C@H](O)[C@H](O)[C@H]1O[C@@H]1OC[C@@H](O)[C@H](O[C@@H]2OC[C@](O)(CO)[C@H]2O)[C@H]1O [Polygalacin D, polygalacin D]",292,114,,
"C/C=C(/C)C(=O)O[C@H]1c2c(ccc3ccc(=O)oc23)OC(C)(C)[C@H]1OC(=O)/C(C)=C\C [Praeruptorin B, praeruptorin B]",241,136,,
"C[C@@H]1CC[C@]2(C(=O)O)CC[C@]3(C)C(=CC[C@@H]4[C@@]5(C)CC[C@H](O)[C@@](C)(CO)[C@@H]5CC[C@]43C)[C@@H]2[C@]1(C)O [Rotunic acid, rotundic acid]",296,144,,
"COC(=O)C1=CO[C@@H](O[C@@H]2O[C@H](CO)[C@@H](O)[C@H](O)[C@H]2O)[C@@H]2[C@@]3(C)O[C@H]3[C@@H](O)[C@]12O [Sesamoside, sesamoside]",275,112,,
"C=C1[C@H](OC(=O)/C=C(\C)CC)C[C@@H](C(C)C)[C@@H]2[C@@H]([C@@H](C)OC(C)=O)C(=O)C[C@@H]12 [Tussilagone, tussilagone]",195,136,,
escin,1098,154,increase in melanin synthesis,
polyphyllin VII,275,127,,
valechlorine,218,139,,
"α-melanocyte stimulating hormone (SYSMEHFRWGKPV; ends and bridges not checked; UniProt P01189 138-150, looked up) [α-MSH, α-melanocyte stimulating hormone used as control at 10 nM, reference compound]",,,,135
